# Measured values as given in US10669272B2, “Substituted naphthyridinone compounds useful as T cell activators” (BRISTOL-MYERS SQUIBB COMPANY, priority 2018, dated 2020).
# Like-named read-outs stand apart in the source and are kept apart here.
# Columns and labels:
# [1] = target: T1, human DGKα (Homo sapiens, UniProt P23743); experiment: DGKα LIPGLO assay (extruded liposome substrate), in vitro DGK inhibition; type: biochemical; conditions: liposome (LIPGLO) assay; read-out: DGKa LIPGLO IC50
# T1 construct: TVMV protease cleavage site (C); Hexa-His (C); made in house; host or cells: Sf9 insect cells (baculovirus, Bac-to-Bac)
# T1 sequence (P23743 with tags, fused parts or gaps): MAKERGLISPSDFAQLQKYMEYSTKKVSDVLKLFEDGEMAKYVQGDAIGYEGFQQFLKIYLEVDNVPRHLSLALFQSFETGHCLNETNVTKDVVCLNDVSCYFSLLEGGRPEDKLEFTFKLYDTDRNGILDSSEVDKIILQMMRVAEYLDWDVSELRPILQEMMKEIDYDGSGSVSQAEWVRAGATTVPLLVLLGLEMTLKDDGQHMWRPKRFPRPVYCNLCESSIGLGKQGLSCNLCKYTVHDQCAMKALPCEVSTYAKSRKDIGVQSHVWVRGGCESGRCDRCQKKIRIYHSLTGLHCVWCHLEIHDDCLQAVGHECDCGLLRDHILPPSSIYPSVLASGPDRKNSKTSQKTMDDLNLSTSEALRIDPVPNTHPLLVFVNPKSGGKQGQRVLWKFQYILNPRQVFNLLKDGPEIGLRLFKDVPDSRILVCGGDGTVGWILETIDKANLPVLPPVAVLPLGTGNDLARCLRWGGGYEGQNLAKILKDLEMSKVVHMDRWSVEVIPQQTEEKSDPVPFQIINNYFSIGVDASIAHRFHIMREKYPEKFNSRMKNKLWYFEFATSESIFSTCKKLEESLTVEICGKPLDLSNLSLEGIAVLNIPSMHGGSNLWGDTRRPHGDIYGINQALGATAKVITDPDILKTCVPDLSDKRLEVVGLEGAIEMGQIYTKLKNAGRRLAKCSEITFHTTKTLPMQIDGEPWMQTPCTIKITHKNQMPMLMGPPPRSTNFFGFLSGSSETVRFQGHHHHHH
# [2] = tested on: Human venous whole blood; experiment: Human whole blood IFN-γ assay; type: cell-based; conditions: human whole blood, normalized to 3 μM reference compound with anti-CD3 plus anti-CD28 as 100% activation, read-out: INFg Whole Blood Normalized Agonist EC50;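 further: blood from healthy donors exposed to compound for 1 h before stimulation with anti-CD3 and anti-CD28 at 1 µg/mL each, IFN-γ quantified in supernatant by AlphaLISA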
# Method: Human Whole Blood IFN-γ Assay
# Human venous whole blood (22.5 μL per well), obtained from healthy donors, was pre-treated with compounds for one hour at 37° C. in a humidified 95% air/5% CO2 incubator. The blood was stimulated with 2.5 μL anti-human CD3 and anti-CD28 mAb at a final concentration of 1 μg/mL each for 24 hours at 37° C. IFN-γ in the supernatants was measured using AlphLISA kit (Cat # AL217).
# [3] = target: T2, human DGKζ (Homo sapiens, UniProt Q13574); experiment: DGKζ LIPGLO assay (extruded liposome substrate), in vitro DGK inhibition; type: biochemical; conditions: liposome (LIPGLO) assay; read-out: DGKz LIPGLO IC50
# T2 construct: TVMV protease cleavage site (C); Hexa-His (C); made in house; host or cells: Sf9 insect cells (baculovirus, Bac-to-Bac)
# T2 sequence (Q13574 with tags, fused parts or gaps isoform Q13574-4): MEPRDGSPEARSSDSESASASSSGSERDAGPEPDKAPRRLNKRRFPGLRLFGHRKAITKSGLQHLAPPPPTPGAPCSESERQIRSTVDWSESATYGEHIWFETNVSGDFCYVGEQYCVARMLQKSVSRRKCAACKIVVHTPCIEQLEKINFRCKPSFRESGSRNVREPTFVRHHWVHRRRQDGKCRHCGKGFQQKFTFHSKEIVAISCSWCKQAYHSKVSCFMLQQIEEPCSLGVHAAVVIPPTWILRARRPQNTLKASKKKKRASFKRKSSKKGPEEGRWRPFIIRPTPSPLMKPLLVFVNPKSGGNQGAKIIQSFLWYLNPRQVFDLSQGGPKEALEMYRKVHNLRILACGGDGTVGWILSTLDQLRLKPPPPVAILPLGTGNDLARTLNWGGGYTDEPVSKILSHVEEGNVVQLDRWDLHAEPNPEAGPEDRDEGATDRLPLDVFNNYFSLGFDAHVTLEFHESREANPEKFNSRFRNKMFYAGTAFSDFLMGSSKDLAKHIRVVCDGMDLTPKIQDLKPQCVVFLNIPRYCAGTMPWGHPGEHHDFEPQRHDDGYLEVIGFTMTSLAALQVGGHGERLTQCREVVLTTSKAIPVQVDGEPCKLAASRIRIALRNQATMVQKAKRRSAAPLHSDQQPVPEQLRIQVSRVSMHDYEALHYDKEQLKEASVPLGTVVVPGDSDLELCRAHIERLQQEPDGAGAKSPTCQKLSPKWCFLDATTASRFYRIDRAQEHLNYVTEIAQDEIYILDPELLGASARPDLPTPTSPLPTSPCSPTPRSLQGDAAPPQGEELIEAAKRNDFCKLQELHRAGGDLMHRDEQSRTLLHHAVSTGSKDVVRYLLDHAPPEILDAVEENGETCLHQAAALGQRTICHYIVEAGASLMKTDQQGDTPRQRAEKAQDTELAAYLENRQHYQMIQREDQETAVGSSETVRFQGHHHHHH
Compound,IC50 [1],EC50 [2],IC50 [3],"EC50 ([2]; Homo sapiens, 24 h)"
"CC[C@@H]1CN(c2cc(=O)n(C)c3ccc(C#N)nc23)[C@@H](C)CN1C(c1ccc(F)cc1)c1ccon1 (single isomer, unassigned) [Example 1115]",84 nM,800 nM,1400 nM,
"CC[C@H]1CN(C(c2cccc(F)c2)c2ccc(C)cn2)[C@H](C)CN1c1cc(=O)n(C)c2ccc(C#N)nc12 (single isomer, unassigned) [Example 1125]",360 nM,170 nM,1500 nM,
"CC[C@H]1CN(C(c2cccc(F)c2)c2ccc(C)cn2)[C@H](C)CN1c1cc(=O)n(C)c2ccc(C#N)nc12 (single isomer, unassigned) [Example 1126]",1200 nM,950 nM,3000 nM,
"CC[C@H]1CN(C(c2ccc(Cl)cc2)c2ccc(F)cn2)[C@H](C)CN1c1cc(=O)n(C)c2ccc(C#N)nc12 (single isomer, unassigned) [Example 1129]",110 nM,,1800 nM,410 nM
"CC[C@H]1CN(C(c2ccc(Cl)cc2)c2ccc(F)cn2)[C@H](C)CN1c1cc(=O)n(C)c2ccc(C#N)nc12 (single isomer, unassigned) [Example 1130]",170 nM,280 nM,430 nM,
"CC[C@H]1CN(C(c2ccc(F)cc2)c2ccc(C(F)(F)F)cn2)[C@H](C)CN1c1cc(=O)n(C)c2ccc(C#N)nc12 (single isomer, unassigned) [Example 1131]",73 nM,430 nM,180 nM,
"CC[C@H]1CN(C(c2ccc(F)cc2)c2ccc(C(F)(F)F)cn2)[C@H](C)CN1c1cc(=O)n(C)c2ccc(C#N)nc12 (single isomer, unassigned) [Example 1132]",620 nM,1600 nM,790 nM,
"CC[C@H]1CN(C(c2ccc(F)cc2)c2cccc(C(F)(F)F)n2)[C@H](C)CN1c1cc(=O)n(C)c2ccc(C#N)nc12 (single isomer, unassigned) [Example 1133]",1600 nM,,130 nM,570 nM
"CC[C@H]1CN(C(c2ccc(F)cc2)c2cccc(C(F)(F)F)n2)[C@H](C)CN1c1cc(=O)n(C)c2ccc(C#N)nc12 (single isomer, unassigned) [Example 1134]",360 nM,340 nM,130 nM,
"CC[C@H]1CN(C(C)c2ccc(F)cc2)[C@H](C)CN1c1cc(=O)n(C)c2ccc(C#N)nc12 (single isomer, unassigned) [Example 1136]",1100 nM,2300 nM,11000 nM,
"CC[C@H]1CN(C(C)c2ccc(F)cc2F)[C@H](C)CN1c1cc(=O)n(C)c2ccc(C#N)nc12 (single isomer, unassigned) [Example 1137]",26 nM,290 nM,45 nM,
"CC[C@H]1CN(C(C)c2ccc(F)cc2F)[C@H](C)CN1c1cc(=O)n(C)c2ccc(C#N)nc12 (single isomer, unassigned) [Example 1138]",980 nM,3700 nM,1400 nM,
"CC[C@H]1CN(C(C)c2ccc(F)c(F)c2)[C@H](C)CN1c1cc(=O)n(C)c2ccc(C#N)nc12 (single isomer, unassigned) [Example 1139]",64 nM,1100 nM,100 nM,
"CC[C@H]1CN(C(C)c2ccc(F)c(F)c2)[C@H](C)CN1c1cc(=O)n(C)c2ccc(C#N)nc12 (single isomer, unassigned) [Example 1140]",1600 nM,3400 nM,990 nM,
"CC[C@H]1CN(C(C)c2ccc(OC(F)(F)F)cc2)[C@H](C)CN1c1cc(=O)n(C)c2ccc(C#N)nc12 (single isomer, unassigned) [Example 1141]",8.3 nM,470 nM,370 nM,
"CC[C@H]1CN(C(C)c2ccc(OC(F)(F)F)cc2)[C@H](C)CN1c1cc(=O)n(C)c2ccc(C#N)nc12 (single isomer, unassigned) [Example 1142]",700 nM,1200 nM,1600 nM,
"CC[C@H]1CN(C(C)c2ccc(C(F)(F)F)cc2)[C@H](C)CN1c1cc(=O)n(C)c2ccc(C#N)nc12 (single isomer, unassigned) [Example 1143]",1400 nM,4000 nM,13000 nM,
"CC[C@H]1CN(C(C)c2ccc(C(F)(F)F)cc2)[C@H](C)CN1c1cc(=O)n(C)c2ccc(C#N)nc12 (single isomer, unassigned) [Example 1144]",260 nM,250 nM,1500 nM,
"CC[C@H]1CN(C(C)c2ccc(OC(F)F)cc2)[C@H](C)CN1c1cc(=O)n(C)c2ccc(C#N)nc12 (single isomer, unassigned) [Example 1145]",310 nM,3300 nM,860 nM,

Compound,IC50 [1],EC50 [2],IC50 [3],"EC50 ([2]; Homo sapiens, 24 h)"
"COC[C@@H]1CN(c2cc(=O)n(C)c3ccc(C#N)nc23)[C@@H](C)CN1C(c1ccc(F)cc1)c1ccc(C#N)cc1 (single isomer, unassigned) [Example 1157]",4200 nM,,700 nM,270 nM
"COC[C@@H]1CN(c2cc(=O)n(C)c3ccc(C#N)nc23)[C@@H](C)CN1C(c1ccc(F)cc1)c1ccc(C#N)cc1 (single isomer, unassigned) [Example 1158]",6500 nM,350 nM,1300 nM,
"COC[C@@H]1CN(c2cc(=O)n(C)c3ccc(C#N)nc23)[C@@H](C)CN1C(C)c1ccc(F)cc1 (single isomer, unassigned) [Example 1159]",360 nM,,130 nM,300 nM
"COC[C@@H]1CN(c2cc(=O)n(C)c3ccc(C#N)nc23)[C@@H](C)CN1C(C)c1ccc(F)cc1 (single isomer, unassigned) [Example 1160]",1500 nM,,1700 nM,1100 nM
"CC[C@H]1CN(C(c2ccc(F)cc2)c2ccc(C#N)cc2)[C@H](COC)CN1c1cc(=O)n(C)c2ccc(C#N)nc12 (single isomer, unassigned) [Example 1170]",760 nM,,170 nM,230 nM
"CC[C@H]1CN(C(c2ccc(F)cc2)c2ccc(C#N)cc2)[C@H](COC)CN1c1cc(=O)n(C)c2ccc(C#N)nc12 (single isomer, unassigned) [Example 1171]",1500 nM,170 nM,350 nM,
"C[C@@H]1CN(C(c2ccc(F)cc2)c2ccc(Cl)cc2)[C@@H](CO)CN1c1cc(=O)n(C)c2ccc(C#N)nc12 (single isomer, unassigned) [Example 1174]",11000 nM,,430 nM,1400 nM
"CC(c1ccc(F)cc1)N1C[C@@H](C)N(c2cc(=O)n(C)c3ccc(C#N)nc23)C[C@@H]1CO (single isomer, unassigned) [Example 1178]",43000 nM,3100 nM,720 nM,
"CC(c1ccc(F)cc1)N1C[C@@H](C)N(c2cc(=O)n(C)c3ccc(C#N)nc23)C[C@@H]1CO (single isomer, unassigned) [Example 1179]",> 250000 nM,20000 nM,850 nM,
"Cn1c(=O)cc(N2CCN(Cc3ccc(F)cc3Cl)C(COC(F)F)C2)c2nc(C#N)ccc21 (single isomer, unassigned) [Example 1185, 8-(4-(2-chloro-4-fluorobenzyl)-3-((difluoromethoxy)methyl)piperazin-1-yl)-5-methyl-6-oxo-5,6-dihydro-1,5-naphthyridine-2-carbonitrile]",81000 nM,,2400 nM,4300 nM
"C[C@@H]1CN(c2cc(=O)n(C)c3ccc(C#N)nc23)[C@@H](C)CN1C(COC(F)F)c1ccc(F)cc1 (single isomer, unassigned) [Example 1189]",810 nM,,2600 nM,1200 nM
"CCC(c1ccc(OC(F)(F)F)cc1)N1C[C@H](C)N(c2cc(=O)n(C)c3ccc(C#N)nc23)C[C@H]1CC (single isomer, unassigned) [Example 1198]",990 nM,1700 nM,1100 nM,
"CCC(c1ccc(OC(F)(F)F)cc1)N1C[C@H](C)N(c2cc(=O)n(C)c3ccc(C#N)nc23)C[C@H]1CC (single isomer, unassigned) [Example 1199]",20 nM,34 nM,37 nM,
"CC(c1ccc(C2CC2)cc1F)N1C[C@H](C)N(c2cc(=O)n(C)c3ccc(C#N)nc23)C[C@H]1C (single isomer, unassigned) [Example 1200]",250 nM,,53 nM,230 nM
"CC(c1ccc(C2CC2)cc1F)N1C[C@H](C)N(c2cc(=O)n(C)c3ccc(C#N)nc23)C[C@H]1C (single isomer, unassigned) [Example 1201]",13000 nM,,3400 nM,5600 nM
"CC(c1ccc(OC(F)(F)F)c(F)c1)N1C[C@H](C)N(c2cc(=O)n(C)c3ccc(C#N)nc23)C[C@H]1C (single isomer, unassigned) [Example 1204]",120 nM,540 nM,470 nM,
"CC(c1ccc(OC(F)(F)F)c(F)c1)N1C[C@H](C)N(c2cc(=O)n(C)c3ccc(C#N)nc23)C[C@H]1C (single isomer, unassigned) [Example 1205]",1700 nM,8000 nM,2700 nM,
"CC(c1cccc(OC(F)(F)F)c1F)N1C[C@H](C)N(c2cc(=O)n(C)c3ccc(C#N)nc23)C[C@H]1C (single isomer, unassigned) [Example 1208]",1100 nM,1000 nM,37 nM,
"CC(c1cccc(OC(F)(F)F)c1F)N1C[C@H](C)N(c2cc(=O)n(C)c3ccc(C#N)nc23)C[C@H]1C (single isomer, unassigned) [Example 1209]",20000 nM,12000 nM,1200 nM,
